These results are taken from patent US20250042894A1, “PROTEIN TYROSINE PHOSPHATASE INHIBITORS AND METHODS OF USE THEREOF” (Calico Life Sciences LLC, priority 2021, published 2025).

The target in experiment [1] is T1, His tagged PTPN2 (TC45) protein (Homo sapiens, UniProt P17706).
T1 construct: His; made in house
T1 sequence (P17706 1-387 isoform P17706-2): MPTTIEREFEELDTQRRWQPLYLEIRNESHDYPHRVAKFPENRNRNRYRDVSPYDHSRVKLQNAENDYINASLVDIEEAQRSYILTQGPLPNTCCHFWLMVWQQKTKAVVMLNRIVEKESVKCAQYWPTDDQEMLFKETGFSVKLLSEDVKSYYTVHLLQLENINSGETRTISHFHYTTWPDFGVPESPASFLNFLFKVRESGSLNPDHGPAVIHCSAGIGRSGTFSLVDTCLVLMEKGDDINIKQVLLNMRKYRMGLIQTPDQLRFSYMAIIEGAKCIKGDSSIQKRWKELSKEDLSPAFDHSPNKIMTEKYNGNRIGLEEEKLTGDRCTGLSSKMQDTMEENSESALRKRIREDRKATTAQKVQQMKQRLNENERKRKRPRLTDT
The experiment is described as follows: Mobility Shift Assay (MSA) for PTPN2 inhibitors. Format: biochemical. The conditions noted are these: for Thiochromane x-fold>potency biochemical: PTPN2 MSA IC50 of chromane comparator over thiochromane. Here is the method:
Example 43: Mobility Shift Assay (MSA) Used to Determine Potency of PTPN2 Inhibitors
Compound activity was determined using in house His tagged PTPN2 (TC45) protein (SEQ ID NO: 1) in an in vitro enzymatic reaction. The enzymatic assay used to determine activity was a mobility shift assay using a LabChip EZ Reader by Caliper Life Sciences. The enzymatic reaction was carried out in assay buffer (50 mM HEPES pH 7.5, 1 mM EGTA, 10 mM EDTA, 0.01% Tween® 20, and 2 mM DTT). The compounds were dispensed on a white 384 well ProxiPlate™ (PerkinElmer Catalog #6008289) plate using the Labcyte Echo at varying concentrations (12 point, 1:3 dilution). The enzyme (at 0.5 nM) was incubated with compound for 10 minutes at room temperature. Thereafter, the substrate (phosphorylated insulin receptor probe sequence: ((OG488)-(NH—CH2—CH2—O—CH2—CH2—O—CH2—CO)-T-R-D-I—(PY)-E-T-D-Y—Y—R—K—K—NH2) (SEQ ID NO: 2) was added at 2 μM to the plates and incubated for another 10 minutes at room temperature. Finally, a quench solution (water and 4-bromo-3-(2-oxo-2-propoxyethoxy)-5-(3-{[1-(phenylmethanesulfonyl)piperidin-4-yl]amino}phenyl)thiophene-2-carboxylic acid) was added to the plates, which were then run on the EZ Reader (excitation 488 nm, emission 530 nm) to measure % conversion (the amount of phosphorylated substrate which was de-phosphorylated by PTPN2). […] The % inhibition was then used to calculate the IC50 values.

Experiment [2] concerns the target T2, His tagged full-length PTPN1 protein (Homo sapiens, UniProt P18031).
T2 construct: His; made in house
T2 sequence (P18031 1-435): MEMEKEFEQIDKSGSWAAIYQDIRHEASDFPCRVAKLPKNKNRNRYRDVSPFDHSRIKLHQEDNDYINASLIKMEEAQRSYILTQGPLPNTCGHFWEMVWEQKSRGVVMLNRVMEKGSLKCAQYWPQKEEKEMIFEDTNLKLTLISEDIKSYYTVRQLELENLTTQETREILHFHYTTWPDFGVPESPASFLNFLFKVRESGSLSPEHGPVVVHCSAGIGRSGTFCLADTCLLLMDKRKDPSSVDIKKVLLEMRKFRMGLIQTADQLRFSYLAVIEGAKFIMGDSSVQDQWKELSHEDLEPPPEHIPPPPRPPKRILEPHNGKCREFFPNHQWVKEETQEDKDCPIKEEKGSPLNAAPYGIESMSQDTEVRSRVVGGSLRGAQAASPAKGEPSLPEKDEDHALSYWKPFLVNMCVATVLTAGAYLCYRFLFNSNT
The experiment is described as follows: Mobility Shift Assay (MSA) for PTPN1 inhibitors. The experiment is classed as biochemical. Conditions: enzyme 0.5 nM, substrate 2 μM, 10 minutes preincubation at room temperature. The procedure: Example 44: Mobility Shift Assay (MSA) Used to Determine Potency of PTPN1 Inhibitors
Compound activity was determined using in house His tagged full-length PTPN1 protein (SEQ ID NO: 3) in an in vitro enzymatic reaction. The enzymatic assay used to determine activity is a mobility shift assay using a LabChip EZ Reader by Caliper Life Sciences. The enzymatic reaction was carried out in assay buffer (50 mM HEPES pH 7.5, 1 mM EGTA, 10 mM EDTA, 0.010% Tween® 20, and 2 mM DTT). The compounds were dispensed on a white 384 well ProxiPlate™ (PerkinElmer Cat #6008289) plate using a Labcyte Echo® liquid handler at varying concentrations (12 point, 1:3 dilution). The enzyme (at 0.5 nM) was incubated with compound for 10 minutes at room temperature. Thereafter, the substrate (phosphorylated insulin receptor probe sequence: ((OG488)-(NH—CH2—CH2—O—CH2—CH2—O—CH2—CO)-T-R-D-I—(PY)-E-T-D-Y—Y—R—K—K—NH2) (SEQ ID NO: 2) was added at 2 μM to the plates and incubated for another 10 minutes at room temperature. Finally, a quench solution (water and 4-bromo-3-(2-oxo-2-propoxyethoxy)-5-(3-{[1-(phenylmethanesulfonyl)piperidin-4-yl]amino}phenyl)thiophene-2-carboxylic acid) was added to the plates, which were then run on the EZ Reader (excitation 488 nm, emission 530 nm) to measure % conversion (the amount of phosphorylated substrate which was de-phosphorylated by PTPN1). […] The % inhibition was then used to calculate the IC50 values.

Experiment [3] concerns IFNγ-induced STAT1 phosphorylation (pSTAT1) in B16F10 cells. The experiment is described as follows: B16F10 Phospho-STAT1 HTRF proximal pharmacodynamic (PD) assay. Format: cell-based, murine. The conditions noted are these: for EC50: B16-F10. Here is the method:
Example 45: B16F10 (Murine Melanoma Cells) Phospho-STAT1 HTRF Proximal Pharmacodynamic (PD) Assay
B16F10 cells were grown and maintained in high glucose DMEM (Gibco, Catalog #11965-092, Dun Laoghaire Co Dublin) supplemented with 10% fetal bovine serum (Gibco, Catalog #10082-139, Dun Laoghaire Co Dublin). The cells were pelleted and resuspended in high glucose DMEM without phenol red (Gibco, Catalog #11054-020, Dun Laoghaire Co Dublin), supplemented with 10% fetal bovine serum and plated in a 384 well Corning plate (product #3765, Corning, NY) at 11,000 cells per well in a volume of 20 μL. The cells were dosed with the compounds of interest using an Echo Liquid Handler (Beckman Coulter, Brea, CA) at 50 μM top dose with 3-fold dilutions down to 0.002679 μM for a 10-point dose response. The plate was incubated for 3 hours at 37° C. and subsequently treated with recombinant mouse IFNγ (R&D Systems, Catalog #485-MI, Minneapolis, MN; 100 nM final concentration) for 10 minutes at 37° C. to induce STAT1 phosphorylation followed by 3.3 μM staurosporine treatment for 1 hour at 37° C. to terminate phosphorylation. Media was then aspirated and 20 μL of 1× lysis buffer/blocking reagent (Cisbio Phospho-STAT1 kit, part #63ADK026PEH, Bedford, MA) was added. The plate was placed on a plate shaker for 30 minutes at room temperature, sealed, and stored at −80° C. until needed. To thaw, the plate was placed on shaker at room temperature until completely thawed while the antibody master mix was made (1:40 Phospho-STAT1 Eu Cryptate antibody, 1:40 Phospho-STAT1 d2 antibody, with the detection buffer; Cisbio Phospho-STAT1 kit, part #63ADK026PEH, Bedford, MA). The antibody master mix was then dispensed at 4 μL per well into a 384 ProxiPlate Plus (PerkinElmer, part #6008289, Waltham, MA) and 16 μL of lysate was added from the Corning plate to the Proxiplate using a VIAFLO 384 (INTEGRA). The plate was incubated for 3 hours at room temperature and read on an EnVision® (Perkin Elmer) plate reader with laser excitation at 335 nm and emission at 665 nm. Dotmatics Studies (Bishop's Stortford, UK) was utilized to generate all dose-response curves and calculate EC50s and are shown in Table 2.

[4] abbreviates: enzyme 0.5 nM, substrate 2 μM, 10 minutes preincubation at room temperature.
Setting [5] is: Table 2, 3 hours compound, then mouse IFNγ 100 nM 10 minutes, top dose 50 μM, read-out: B16F10 IFNγ Induced pSTAT1 EC50.
The mark [6] stands for this setting: Mus musculus, Table 3, B16F10 cells, IFNγ-induced, thiochromanes (X = S) and chromane comparators (X = O), read-out: pSTAT1 EC50.
[7] abbreviates: Table 3, thiochromanes (X = S) and chromane comparators (X = O).

SMILES strings stand for the structures. Read-outs that look alike come from different tables or passages of the source.

One may read the IC50 as the concentration needed to halve the response being measured. A word on the EC50: it is the concentration that produces a half-maximal response. As for `CC(CCN[C@@H]1CSc2cc(O)c(N3CC(=O)NS3(=O)=O)c(F)c2C1)c1ccccc1` (stereo partly drawn) [Compound 134, 5-{(3S)-5-fluoro-7-hydroxy-3-[(3-phenylbutyl)amino]-3,4-dihydro-2H-1-benzothiopyran-6-yl}-1λ^6,2,5-thiadiazolidine-1,1,3-trione], the figures for the IC50 in experiment [1] (setting [4]) and in experiment [2] were under 10 nM and 10 to 100 nM, respectively. Further, the EC50 in experiment [3] (setting [5]) was over 50000 nM.

Consider `O=C1CN(c2c(O)cc3c(c2F)C[C@H](NCC2(CF)CC2)CS3)S(=O)(=O)N1` [Compound 128, 5-[(3S)-5-fluoro-3-({[1-(fluoromethyl)cyclopropyl]methyl}amino)-7-hydroxy-3,4-dihydro-2H-1-benzothiopyran-6-yl]-1λ^6,2,5-thiadiazolidine-1,1,3-trione], for which, in experiment [1] (Table 3), the “Thiochromane x-fold>potency biochemical” value is reported as 1.2. The IC50 in experiment [1] (setting [4]) and in experiment [2] was 10 to 100 nM throughout. The EC50 in experiment [3] (setting [5]) and in experiment [3] (setting [6]) was 25700 nM throughout. For the same compound, the “Thiochromane x-fold>potency cellular” value in experiment [3] (Table 3, pSTAT1 EC50 of chromane comparator over thiochromane) is recorded as over 1.9.

Take `CC1(CCN[C@@H]2CSc3cc(O)c(N4CC(=O)NS4(=O)=O)c(F)c3C2)CC1` [Compound 132, 5-[(3S)-5-fluoro-7-hydroxy-3-{[2-(1-methylcyclopropyl)ethyl]amino}-3,4-dihydro-2H-1-benzothiopyran-6-yl]-1λ^6,2,5-thiadiazolidine-1,1,3-trione]: the IC50 is under 10 nM in experiment [1] (setting [4]) and 10 to 100 nM in experiment [2]. The EC50 in experiment [3] (setting [5]) is 1580 nM.

With `O=C1CN(c2c(O)cc3c(c2F)C[C@H](NCCC2(CO)CCC2)CS3)S(=O)(=O)N1` [Compound 104, 5-[(3S)-5-fluoro-7-hydroxy-3-({2-[1-(hydroxymethyl)cyclobutyl]ethyl}amino)-3,4-dihydro-2H-1-benzothiopyran-6-yl]-1λ^6,2,5-thiadiazolidine-1,1,3-trione], the IC50 in experiment [1] (setting [4]) was under 10 nM; in experiment [2], 10 to 100 nM. Besides, the EC50 in experiment [3] (setting [5]) is 3350 nM.

As to `O=C1CN(c2c(O)cc3c(c2F)CC(NCCC2CCOC2)CO3)S(=O)(=O)N1` (stereo not drawn) [Compound C-5, reference compound], the EC50 in experiment [3] (setting [6]) stood at 22600 nM.

Regarding `CC(C)(C)OC(=O)N[C@@H]1CSc2cc(O)c(N3CC(=O)NS3(=O)=O)c(F)c2C1` [Compound 101, tert-butyl [(3S)-5-fluoro-7-hydroxy-6-(1,1,4-trioxo-1λ^6,2,5-thiadiazolidin-2-yl)-3,4-dihydro-2H-1-benzothiopyran-3-yl]carbamate], the IC50 in experiment [2] is over 100 nM.

As to `CC(C)(C)OC(=O)N1CCC(CNC2COc3cc(O)c(N4CC(=O)NS4(=O)=O)c(F)c3C2)CC1` (stereo not drawn) [Compound C-13, reference compound], the EC50 in experiment [3] (setting [6]) is over 50000 nM.

Regarding `O=C1CN(c2c(O)cc3c(c2F)CC(NCC2C4CCCC42)CO3)S(=O)(=O)N1` (stereo not drawn) [Compound C-10, reference compound], in experiment [3] (setting [6]), the 50% effective concentration (EC50) is over 50000 nM.

With `CC1=C(CCNC2COc3cc(O)c(N4CC(=O)NS4(=O)=O)c(F)c3C2)C(C)(C)CCC1` (stereo not drawn) [Compound C-12, reference compound], the EC50 in experiment [3] (setting [6]) was over 50000 nM.

For `O=C1CN(c2c(O)cc3c(c2F)CC(NCC2(CF)CC2)CO3)S(=O)(=O)N1` (stereo not drawn) [Compound C-6, reference compound], the concentration for a half-maximal effect (EC50) in experiment [3] (setting [6]) is over 50000 nM.

As for `O=C1CN(c2c(O)cc3c(c2F)CC(NCCC2CCOCC2)CO3)S(=O)(=O)N1` (stereo not drawn) [Compound C-4, reference compound], in experiment [3] (setting [6]), the half-maximal effective concentration (EC50) came out at 32200 nM.

Consider `O=C1CN(c2c(O)cc3c(c2F)CC(NCC2CC(c4ccccc4)C2)CO3)S(=O)(=O)N1` (stereo not drawn) [Compound C-7, reference compound], for which the EC50 in experiment [3] (setting [6]) was over 50000 nM.

As to `N[C@@H]1COc2cc(O)c(N3CC(=O)NS3(=O)=O)c(F)c2C1` [Compound C-2, reference compound], the half-maximal inhibitory concentration (IC50) in experiment [1] (setting [7]) amounted to 52 nM. Further, the EC50 in experiment [3] (setting [6]) was 5750 nM.

For the compound `N[C@@H]1CSc2cc(O)c(N3CC(=O)NS3(=O)=O)c(F)c2C1` [Compound 102, 5-[(3S)-3-amino-5-fluoro-7-hydroxy-3,4-dihydro-2H-1-benzothiopyran-6-yl]-1λ^6,2,5-thiadiazolidine-1,1,3-trione], in experiment [1] (Table 3), the “Thiochromane x-fold>potency biochemical” value came out at 1.7. The values for the IC50 in experiment [1] (setting [7]), in experiment [1] (setting [4]) and in experiment [2] were 31 nM, 10 to 100 nM and over 100 nM, respectively.

For the compound `O=C1CN(c2c(O)cc3c(c2F)CC(NCC2CCC(C(F)(F)F)CC2)CO3)S(=O)(=O)N1` (stereo not drawn) [Compound C-11, reference compound], in experiment [3] (setting [6]), the EC50 is over 50000 nM.

`CC(C)CCN[C@@H]1COc2cc(O)c(N3CC(=O)NS3(=O)=O)c(F)c2C1` [Compound C-3, reference compound]: the IC50 in experiment [1] (setting [7]) was 15 nM. Besides, the EC50 in experiment [3] (setting [6]) was 6960 nM.

On to `O=C1CN(c2c(O)cc3c(c2F)CC(NCCCc2ccccc2)CO3)S(=O)(=O)N1` (stereo not drawn) [Compound C-8, reference compound], for which the concentration giving a half-maximal response (EC50) in experiment [3] (setting [6]) was over 50000 nM.
